Assay results from patent publication US20240173283A1, “PROPHYLACTIC AGENT OR THERAPEUTIC AGENT FOR SIDE EFFECTS OF ANTHRACYCLINE ANTICANCER AGENT” (Kyushu University, National University Corporation, priority 2021, published 2024).

Legend:
[1] = system: acrolein in myocardial tissues; test: Acrolein western blot of myocardial tissues, doxorubicin cardiomyopathy model; conditions: day 14, FIG. 4
Description: (§1) The obtained image was quantitatively analyzed in image J (NIH). GAPDH (Santa Cruz Biotechnology Inc., sc-32233) was used as an internal control.

[2] = system: malondialdehyde (MDA) in myocardial tissues; test: MDA (TBARS assay) in myocardial tissues, doxorubicin cardiomyopathy model; conditions: day 14, FIG. 4
[3] = system: iron in myocardial tissues; test: Mitochondrial total iron (ferrozine method) in mouse heart tissues; conditions: day 14, FIG. 9A
Primary cardiomyocytes [4] = test: Malondialdehyde (MDA) measurement by TBARS assay in doxorubicin-treated primary cardiomyocytes; assay type: cell-based, rat; conditions: FIG. 1
Procedure: (§2) Primary cardiomyocytes were isolated by trypsin and collagenase treatment of the heart harvested from a neonatal rat, and inoculated onto a petri dish. After culture for several days, the culture medium was replaced with a serum-free medium (DMEM), and 2 μM (final concentration) doxorubicin was added from 24 hours later in the serum-free medium, and cardiomyocytes were lysed with a RIPA buffer and collected 24 hours after doxorubicin addition. Aminolevulinic acid (5′-ALA, 1 mM) or ferrostatin-1 (Fer-1, 50 µM) was added 1 hour before doxorubicin addition.

Primary cardiomyocytes [5] = test: Cell death evaluation assay (Cell Counting Kit-F) in doxorubicin-treated primary cardiomyocytes; assay type: cell-based, rat; conditions: FIG. 2
Procedure: as §2, with “medium.” for “medium, and cardiomyocytes were lysed with a RIPA buffer and collected 24 hours after doxorubicin addition.”, “μM)” for “µM)”

[6] = system: mitochondrial iron in rat primary cardiomyocytes; test: Mito-FerroGreen fluorescent staining of mitochondrial iron in cardiomyocytes; assay type: cell-based; conditions: FIGS. 8A and 8B
Procedure: 5′-ALA (1 mM) was added to isolated rat primary cardiomyocytes, and doxorubicin (2 M) was added from 1 hour later. The cells were washed once with PBS 24 hours after doxorubicin addition and cultured for 30 minutes in a medium supplemented with Mito-FerroGreen (5 µM) for fluorescent staining of mitochondrial iron. The cells were washed with PBS again and then observed under a fluorescence microscope (BZ-X800, Keyence Corp.) (FIG. 8A). The signal intensity of the obtained image was quantitatively analyzed in image J (NIH).

[7] = system: mitochondrial heme in rat primary cardiomyocytes; test: Mitochondrial heme (QuantiChrom Heme Assay Kit) in cardiomyocytes; assay type: cell-based; conditions: FIG. 8C
[8] = system: Hela cells (human uterine cervical cancer cells); test: Cell death evaluation assay (Cell Counting Kit-F) in Hela cells; assay type: cell-based; conditions: 24 hours, FIG. 10B
Procedure: 5′-ALA (1 mM) was added to Hela cells (human uterine cervical cancer cells), and doxorubicin (2 μM) was added thereto 1 hour later. […] The obtained results were normalized with those of the control group defined as 1, and presented as data.

[9] = system: EL-4 cells (mouse malignant lymphoma cells); test: Cell survival evaluation by Trypan Blue staining in EL-4 cells; assay type: cell-based; conditions: 24 hours, FIG. 10A
Procedure: 5′-ALA (1 mM) was added to EL-4 cells (mouse malignant lymphoma cells), and doxorubicin (1 μM) was added thereto 1 hour later. The cells were collected 24 hours after doxorubicin addition, and dead cells were stained by Trypan Blue staining. The numbers of live cells and dead cells were counted in an automatic cell counter (Countess II FL, Thermo Fisher Scientific Inc.). Cell survival evaluation was conducted from the ratio (%) of the number of live cells to the total number of cells.

Primary cardiomyocytes [10] = test: Cell death evaluation assay in primary cardiomyocytes with various anthracycline anticancer agents; assay type: cell-based, rat; conditions: 5′-ALA 1 mM added 2 hours before DOX, DNR, THP, IDR or EPI (1 or 2 μM); 26 hours after addition; FIG. 5
Procedure: Primary cardiomyocytes were isolated by trypsin and collagenase treatment of the heart harvested from a neonatal rat, and inoculated onto a petri dish. After culture for several days, the culture medium was replaced with a serum-free medium (DMEM), and doxorubicin (DOX; 1 or 2 μM), daunorubicin (DNR; 1 or 2 μM), pirarubicin (THP; 1 or 2 μM), idarubicin (IDR; 1 or 2 μM), or epirubicin (EPI; 1 or 2 μM) was added (final concentrations for all) from 24 hours later in the serum-free medium. Aminolevulinic acid (5′-ALA, 1 mM) was added 2 hours before doxorubicin addition. […] The obtained results were normalized with those of the control group defined as 1, and presented as data.

[11] = system: mitochondrial heme in myocardial tissues; test: Mitochondrial heme (QuantiChrom Heme Assay Kit) in mouse heart tissues; conditions: day 14, FIG. 9B
[12] = system: doxorubicin cardiomyopathy model; test: Echocardiography in doxorubicin cardiomyopathy model; assay type: in vivo, mouse; conditions: FIG. 3
ALAS1 [13] = test: Alas1 western blot in rat primary cardiomyocytes; assay type: cell-based; conditions: doxorubicin 2 μM, 24 hours; β-Actin internal control; FIG. 6A
Description: The obtained image was quantitatively analyzed in image J (NIH). β-Actin (Santa Cruz Biotechnology Inc., sc-47778) was used as an internal control.

ALAS1 [14] = test: Alas1 western blot in mouse heart tissues; assay type: in vivo; conditions: doxorubicin 6 mg/kg/dose, days 0, 2, 4; day 7; GAPDH internal control; FIG. 6B
Description: as §1

protoporphyrin IX (PpIX) = test: Protoporphyrin IX measurement by mass spectrometer in cardiomyocytes; assay type: cell-based, rat; conditions: doxorubicin 2 μM, 24 hours; FIG. 7
Procedure: After doxorubicin (2 μM, 24 hours) addition to isolated rat primary cardiomyocytes, the cells were collected with PBS. 50% acetic acid and a dimethylformamide (DMF)/2-propanol (IPA) mixed solution were added to the collected sample, and the mixture was vigorously mixed by vortex. After centrifugation, a supernatant was recovered (supernatant 1), and a DMF/IPA mixed solution was added again to pellets, followed by centrifugation again. The supernatant thus obtained by centrifugation (supernatant 2) and the supernatant 1 were combined and used as protoporphyrin IX extracts. Acetonitrile was added to the extracts, and the mixture was deproteinized and then centrifuged at 20000 g for 20 minutes. Then, a supernatant was applied to a mass spectrometer (column: 1.8 UM, 2.1×100 mm; Waters, MA, USA, measurement equipment: Q Exactive Ultimate 3000; Thermo Fisher Scientific Inc.) to measure protoporphyrin IX (PPIX) in the cardiomyocytes.

[15] = 5′-ALA 300 mg/kg/day in drinking water from 3 days before doxorubicin
[16] = 5′-ALA oral 300 mg/kg/day in drinking water from 3 days before initial doxorubicin
[17] = 5′-ALA 1 mM added 1 hour before doxorubicin 2 μM, 24 hours after doxorubicin
[18] = doxorubicin 6 mg/kg/dose, days 0, 2, 4

For NCC(=O)CCC(=O)O [5′-ALA, 5-aminolevulinic acid], the “lipid peroxide (acrolein) level in myocardial tissues” value [1, 15] was “significantly suppressed increase in lipid peroxide (acrolein and MDA) levels”, the “lipid peroxide (MDA) level in myocardial tissues” value [2, 15] was “significantly suppressed increase in lipid peroxide (acrolein and MDA) levels” and the “total amount of iron in heart mitochondria (myocardial tissues)” value [3, 16] was “the iron excess state is normalized”. For the same compound, the “lipid peroxide level (MDA) in cardiomyocytes” value (“lipid peroxide level (MDA)” for short) (Primary cardiomyocytes [4]; 5′-ALA 1 mM added 1 hour before 2 μM doxorubicin, collected 24 hours after doxorubicin) was “suppressed increase in lipid peroxide level”, the “cell death (ferroptosis) of cardiomyocytes” value (shortened to “cell death (ferroptosis)”) (Primary cardiomyocytes [5]; 5′-ALA 1 mM added 1 hour before 2 μM doxorubicin, 24 hours after doxorubicin) was “suppressed the cell death (ferroptosis) of cardiomyocytes” and the “mitochondrial iron in cardiomyocytes (Mito-FerroGreen signal intensity)” value [6, 17] was “the iron excess state is normalized”. For the same compound, the “mitochondrial heme in cardiomyocytes” value [7, 17] was “the disorder is normalized”, the “attenuation of cell death-inducing effect of doxorubicin in Hela cells” value ([8]; 5′-ALA 1 mM added 1 hour before doxorubicin 2 μM) was “the effects were not attenuated” and the “attenuation of cell death-inducing effect of doxorubicin in EL-4 cells” value ([9]; 5′-ALA 1 mM added 1 hour before doxorubicin 1 μM) was “the effects were not attenuated”. For the same compound, the “cell death of cardiomyocytes” value (Primary cardiomyocytes [10]) was “suppressed the cell death of cardiomyocytes in all the administration groups”, the “mitochondrial heme in myocardial tissues” value [11, 16] was “the disorder is normalized” and the “left ventricular contractility (left ventricular ejection fraction, LVEF)” value ([12]; 5′-ALA 300 mg/kg/day in drinking water from 3 days before doxorubicin (6 mg/kg/dose, days 0, 2, 4, tail vein), echocardiography 7 and 14 days) was “significantly improved reduction in left ventricular contractility”.

For COc1cccc2c1C(=O)c1c(O)c3c(c(O)c1C2=O)C[C@@](O)(C(=O)CO)C[C@@H]3O[C@H]1C[C@H](N)[C@H](O)[C@H](C)O1 [doxorubicin], the “lipid peroxide (acrolein) level in myocardial tissues” value [1, 18] was “increase in lipid peroxide (acrolein and MDA) levels”, the “lipid peroxide (MDA) level in myocardial tissues” value [2, 18] was “increase in lipid peroxide (acrolein and MDA) levels” and the “total amount of iron in heart mitochondria (myocardial tissues)” value [3, 18] was “an iron excess state is induced”. The “lipid peroxide level (MDA)” value (Primary cardiomyocytes [4]; doxorubicin 2 μM, 24 hours) was “increase in lipid peroxide level in cardiomyocytes”, the “level of ALAS1 in cardiomyocytes” value (ALAS1 [13]) was “decreased” and the “cell death (ferroptosis)” value (Primary cardiomyocytes [5]; doxorubicin 2 μM, 24 hours) was “cell death (ferroptosis) of cardiomyocytes induced by doxorubicin”. For the same compound, the “mitochondrial iron in cardiomyocytes (Mito-FerroGreen signal intensity)” value ([6]; doxorubicin 2 μM, 24 hours) was “an iron excess state occurs”, the “mitochondrial heme in cardiomyocytes” value ([7]; doxorubicin 2 μM, 24 hours) was “a heme synthesis disorder is induced” and the “level of ALAS1 in myocardial tissues” value (ALAS1 [14]) was “decreased”. For the same compound, the “cell death-inducing effect in Hela cells” value ([8]; doxorubicin 2 μM) was “a cell death-inducing effects, which are the drug efficacy of doxorubicin, were observed”, the “cell death-inducing effect in EL-4 cells (ratio of live cells to total cells)” value ([9]; doxorubicin 1 μM) was “a cell death-inducing effects, which are the drug efficacy of doxorubicin, were observed” and the “mitochondrial heme in myocardial tissues” value [11, 18] was “heme synthesis disorder is induced”. The “left ventricular contractility (left ventricular ejection fraction, LVEF)” value ([12]; doxorubicin 6 mg/kg/dose, days 0, 2, 4, tail vein) was “reduction in left ventricular contractility” and the “level of protoporphyrin IX (PpIX) in cardiomyocytes” value (protoporphyrin IX (PpIX)) was “decreased”.

In the case of CCOC(=O)c1ccc(NC2CCCCC2)c(N)c1 [Fer-1, ferrostatin-1], the “lipid peroxide level (MDA)” value (Primary cardiomyocytes [4]; Fer-1 50 µM added 1 hour before 2 μM doxorubicin, collected 24 hours after doxorubicin) is reported as “equivalent to the effect of Fer-1” and the “cell death (ferroptosis)” value (Primary cardiomyocytes [5]; Fer-1 50 μM added 1 hour before 2 μM doxorubicin, 24 hours after doxorubicin) is reported as “equivalent to the effect of Fer-1”.
